We go through seven molecules from ChEMBL document CHEMBL1201862, “PubChem BioAssay data set” (2004).

SMILES strings stand for the structures.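 In this assay, cells in 96-well plates receive the compound at five concentrations for 48 hours. Endpoints are linearly interpolated between the surrounding concentrations. GI50 is the concentration that inhibits growth by half.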 Calls of active or inactive are those of the source. Rule as the data show it: active = GI50 up to about 1.1 µM and inactive = higher.

What all share (experiment): growth of human tumour cells (NCI), 48 h
Assay [1] deals with HT-29.
For assay [2], the system named is MDA-MB-231.
Assay [3] concerns A549.
The test system of assay [4] is MCF7.
Assay [5] has as its system PC-3.
For assay [6], the system named is SK-OV-3.
Assay [7] relates to COLO 205.
Assay [8] has as its system U-251.
The subject of assay [9] is SF-295.
For assay [10], the system named is T47D.
Assay [11] concerns 786-0.
Assay [12] has as its system OVCAR-5.
The subject of assay [13] is NCI-H460.
Assay [14] relates to SK-MEL-2.
Assay [15] deals with NCI-H23.
Assay [16] has as its system SF-268.
The test system of assay [17] is HL-60.
For assay [18], the system named is NCI/ADR-RES.
Assay [19] concerns MDA-MB-435.
The test system of assay [20] is UACC-62.

In the case of `C1=C\CCCCN2C[C@H]3CCCC/C=C\CCCCN4CC[C@@H]([C@H](CCCCCC/1)C4)[C@H](C3)C2`, the GI50 in [1] is 2.07 µM (inactive); in [2], 0.979 µM (active); in assay [3] it was 2.09 µM (inactive); in [4], 1.93 µM (inactive); in assay [5], 3.12 µM (inactive); in [6], 8.09 µM (inactive). Besides, the GI50 in [7] was 2.07 µM (inactive); in assay [8], 2.2 µM (inactive); in assay [9] it was 1.71 µM (inactive); in assay [10] it was 2.61 µM (inactive); in assay [11], 1.75 µM (inactive); in assay [12] it was 7.5 µM (inactive). The GI50 was 1.76 µM (inactive) in [13]; 1.88 µM (inactive) in [14]; 6.24 µM (inactive) in [15]; 2.65 µM (inactive) in assay [16]; 2.31 µM (inactive) in [17]; 3.12 µM (inactive) in assay [18]. Further, the GI50 is 1.86 µM (inactive) in [19] and 1.87 µM (inactive) in assay [20].
On to `COC(=O)CC1C=CC(C)(OC)OO1` (stereo not given), for which the GI50 is > 100 µM (inactive) in assay [1]; > 100 µM (inactive) in assay [2]; 26 µM (inactive) in [3]; 53.1 µM (inactive) in [4]; > 100 µM (inactive) in assay [5]; > 100 µM (inactive) in [6]. Also, the GI50 in assay [7] was 55.7 µM (inactive); in assay [8], > 100 µM (inactive); in assay [9], > 100 µM (inactive); in [10], > 100 µM (inactive); in assay [11] it was > 100 µM (inactive); in assay [12], > 100 µM (inactive). Moreover, the GI50 is 4.84 µM (inactive) in [13]; > 100 µM (inactive) in assay [14]; > 100 µM (inactive) in [15]; > 100 µM (inactive) in assay [16]; 21 µM (inactive) in assay [17]; > 100 µM (inactive) in assay [18]. Further, the GI50 in assay [19] was > 100 µM (inactive); in [20], 49.9 µM (inactive).
For the molecule `Cc1ccc2c(c1)C(=O)/C(=N/Nc1ccc(Cl)cc1)CCO2`, the GI50 in [1] is 26.4 µM (inactive); in [2], > 100 µM (inactive); in assay [3] it was 94.6 µM (inactive); in assay [4], 58.7 µM (inactive); in assay [5], 54.5 µM (inactive); in assay [6], > 100 µM (inactive). Also, the GI50 was 63.5 µM (inactive) in assay [7]; > 100 µM (inactive) in assay [8]; 24.3 µM (inactive) in assay [9]; 13.3 µM (inactive) in assay [10]; 37.1 µM (inactive) in assay [11]; 69.7 µM (inactive) in assay [12]. Besides, the GI50 in [13] was 92.9 µM (inactive); in assay [14], 21.2 µM (inactive); in assay [15] it was > 100 µM (inactive); in assay [16], > 100 µM (inactive); in [17] it was 38.9 µM (inactive); in assay [18], > 100 µM (inactive). The GI50 was 71 µM (inactive) in assay [19] and 50.1 µM (inactive) in [20].
Consider `O=c1cc(NNc2cccc3ccccc23)[nH]c(=O)[nH]1`, for which the GI50 in assay [1] was 17.6 µM (inactive); in assay [2], 13.3 µM (inactive); in assay [3] it was 17.9 µM (inactive); in [4], 1.69 µM (inactive); in assay [5], 13.8 µM (inactive); in [6], 26.7 µM (inactive). In addition, the GI50 in assay [7] is 17.3 µM (inactive); in [8] it was 14.6 µM (inactive); in [9], 17.5 µM (inactive); in assay [10] it was 10.2 µM (inactive); in assay [11], 6.12 µM (inactive); in assay [12], 17.2 µM (inactive). Moreover, the GI50 was 18.8 µM (inactive) in [13]; 15 µM (inactive) in [14]; 15.3 µM (inactive) in assay [15]; 16.4 µM (inactive) in [16]; 2.9 µM (inactive) in [17]; 19.5 µM (inactive) in assay [18]. Moreover, the GI50 in [19] is 17.1 µM (inactive); in assay [20], 17.5 µM (inactive).
As to `COC(=O)C1=C(C(=O)OC)C2(c3ccccc3)c3ccccc3C(=O)C1N2C1CCCCC1` (stereo not given), the GI50 in assay [1] was 42.1 µM (inactive); in assay [2], > 32.4 µM (inactive); in assay [3], 17.7 µM (inactive); in assay [4] it was 37.7 µM (inactive); in assay [5], 10.6 µM (inactive); in assay [6], > 96.2 µM (inactive). In addition, the GI50 was 16.8 µM (inactive) in [7]; 49.9 µM (inactive) in assay [8]; 25.5 µM (inactive) in [9]; > 100 µM (inactive) in assay [10]; 47.4 µM (inactive) in assay [11]; 54.8 µM (inactive) in [12]. For the same molecule, the GI50 was 24.5 µM (inactive) in [13]; > 61.9 µM (inactive) in [14]; > 52.5 µM (inactive) in assay [15]; 88.7 µM (inactive) in [16]; 3.1 µM (inactive) in assay [17]; > 82 µM (inactive) in [18]. Further, the GI50 is 86.7 µM (inactive) in assay [19] and 61.8 µM (inactive) in [20].
As for `COc1ccc(N2C(=O)CC(=O)N(NC(=O)C(C)Oc3ccccc3C)C2=S)cc1` (stereo not given), the GI50 in [1], in assay [2], in assay [3], in assay [4], in [5] and in assay [6] was > 100 µM (inactive) throughout. Moreover, the GI50 in [7], in [8], in assay [9], in assay [10], in assay [11] and in assay [12] was > 100 µM (inactive) each time. Further, the GI50 in [13], in assay [14], in assay [15], in assay [16], in [17] and in assay [18] was > 100 µM (inactive) in each case. Further, the GI50 in assay [19] and in [20] was > 100 µM (inactive) in each case.
Take `Cc1nn(C(=O)c2ccccc2O)c2c1C(c1ccc([N+](=O)[O-])cc1)SC(=N)N2` (stereo not given): the GI50 in assay [1] is > 6.67 µM (inactive); in assay [2] it was > 5.94 µM (inactive); in [3] it was 1.47 µM (inactive); in assay [4], 3.72 µM (inactive); in assay [5], > 9.53 µM (inactive); in assay [6] it was 6.38 µM (inactive). Also, the GI50 was > 8.61 µM (inactive) in [7]; 2.9 µM (inactive) in assay [8]; 3.13 µM (inactive) in [9]; 5.71 µM (inactive) in assay [10]; > 5.24 µM (inactive) in assay [11]; > 7.76 µM (inactive) in assay [12]. For the same molecule, the GI50 is 3.79 µM (inactive) in [13]; > 5.46 µM (inactive) in [14]; 2.79 µM (inactive) in assay [15]; 6.68 µM (inactive) in assay [16]; 4.27 µM (inactive) in assay [17]; 4.51 µM (inactive) in [18]. Moreover, the GI50 in assay [19] was 1.45 µM (inactive); in [20], 2.03 µM (inactive).
